Test results published in US11401277B2, “Anti-bacterial heterocyclic compounds and their synthesis” (Bugworks Research, Inc., priority 2017, dated 2022).
Values after ≈ are worked out from the molar mass of the structure shown. Values joined by “and” are separate entries in the source; they are usually repeats but may differ in a detail not shown here. Identical values can stand only once. Like-named read-outs stand apart in the source and are kept apart here.

What was measured:
E. coli topoisomerase IV = E. coli topoisomerase IV (Escherichia coli, UniProt P0AFI2+P20083); assay: biochemical
[1] = system: K. pneumoniae clinical strains; assay: Susceptibility (MIC50 and MIC90 determination) studies, clinical strains; format: cell-based; details: CLSI
E. coli [ATCC25922] = assay: Urinary Tract Infection Rat Model (kidneys, bladder); details: for MEAN ± SD (Log10 CFU/g kidneys) / MEAN ± SD (Log10 CFU/ml Bladder) / Mean Log10CFU/g kidney reduction (wrt 4 h PI control: 4.53 Log10CFU/g kidneys) / Mean Log10 CFU/ml Bladder reduction (wrt 4 h PI control: 5.72 CFU/ml Bladder) / Log10 CFU/g (Left Kidney) / Log10 CFU/g (Right Kidney) / Log10 CFU/ml Bladder: i.v., 1 h infusion; for Log10 CFU/g (Left Kidney) / Log10 CFU/g (Right Kidney) / Log10 CFU/ml Bladder: individual animals, 24 h post infection
[2] = system: A. baumanni clinical strains; assay: Susceptibility (MIC50 and MIC90 determination) studies, clinical strains; format: cell-based; details: CLSI
E. coli DNA gyrase = E. coli DNA gyrase (Escherichia coli, UniProt P0AES4+P0AES6); assay: biochemical
[3] = system: P. aeruginosa [ATCC27853]; assay: Neutropenic Lung Infection Model in Rat; format: in vivo; details: for MEAN ± SD (Log10 CFU/g Lung) / Mean Log 10 CFU/g lung reduction (wrt 4 h PI control: 6.52 Log10CFU/g lung) / Log10 CFU/g Lung: i.v., 1 h infusion; for Log10 CFU/g Lung: individual animals, 24 h post infection
Procedure: Animals were placed into an induction chamber and anaesthesia was induced by exposing the animals to 3-5% Isoflurane in an oxygen flow set at approximately (˜) 1 liter per minute (LPM). […] A gentle mixing of inoculum between two animals was followed for uniform distribution.
Meropenem was formulated in saline.
Entire Lung was aseptically isolated, weighed and placed into 1 mL of sterile CSDB broth, and homogenized (Omni Tip (220 V hand held)). Serial ten-fold dilutions of the lungs homogenates were prepared in sterile CSD broth and 0.05 mL of four dilutions for each tissue was plated onto CSDA agar plates. Bacterial colonies were enumerated following overnight incubation at 37° C. Bacterial densities were estimated as Log10 CFU/g lung. The Mean±SD Log10 CFU/g lung was estimated in each group.

[4] = In vivo pharmacokinetic (PK) studies in rats; set-up: species or system Sprague-Dawley (SD) rats; details: for Cmax: Sprague-Dawley, rat, plasma, male SD rats
[5] = Klebsiella pneumoniae, Kpn clinical strains

E. coli DNA gyrase, sequence (P0AES4 whole entry, the tested form may be a part, one chain of several): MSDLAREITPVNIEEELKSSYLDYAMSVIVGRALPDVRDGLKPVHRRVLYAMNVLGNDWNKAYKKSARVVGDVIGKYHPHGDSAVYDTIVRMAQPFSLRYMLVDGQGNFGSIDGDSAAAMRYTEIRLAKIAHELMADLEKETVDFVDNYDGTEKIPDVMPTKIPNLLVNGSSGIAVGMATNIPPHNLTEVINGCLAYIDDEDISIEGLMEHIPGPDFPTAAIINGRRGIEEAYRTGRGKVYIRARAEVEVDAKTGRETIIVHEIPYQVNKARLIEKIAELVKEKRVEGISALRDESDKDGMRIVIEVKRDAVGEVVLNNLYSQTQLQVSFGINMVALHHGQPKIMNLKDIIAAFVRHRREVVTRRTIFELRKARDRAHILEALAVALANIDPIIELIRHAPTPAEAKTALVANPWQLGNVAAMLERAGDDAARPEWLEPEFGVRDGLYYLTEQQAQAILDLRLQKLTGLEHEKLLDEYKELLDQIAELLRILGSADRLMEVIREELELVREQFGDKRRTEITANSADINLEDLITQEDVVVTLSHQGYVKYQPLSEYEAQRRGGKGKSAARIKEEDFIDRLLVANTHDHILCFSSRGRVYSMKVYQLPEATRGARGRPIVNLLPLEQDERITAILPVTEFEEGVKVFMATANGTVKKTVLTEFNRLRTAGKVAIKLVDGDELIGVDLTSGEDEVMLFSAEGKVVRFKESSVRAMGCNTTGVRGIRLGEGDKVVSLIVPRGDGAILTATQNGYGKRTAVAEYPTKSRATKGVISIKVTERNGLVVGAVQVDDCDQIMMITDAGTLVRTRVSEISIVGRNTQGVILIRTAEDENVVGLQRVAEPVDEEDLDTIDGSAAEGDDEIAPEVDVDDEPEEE
E. coli topoisomerase IV, sequence (P20083 whole entry): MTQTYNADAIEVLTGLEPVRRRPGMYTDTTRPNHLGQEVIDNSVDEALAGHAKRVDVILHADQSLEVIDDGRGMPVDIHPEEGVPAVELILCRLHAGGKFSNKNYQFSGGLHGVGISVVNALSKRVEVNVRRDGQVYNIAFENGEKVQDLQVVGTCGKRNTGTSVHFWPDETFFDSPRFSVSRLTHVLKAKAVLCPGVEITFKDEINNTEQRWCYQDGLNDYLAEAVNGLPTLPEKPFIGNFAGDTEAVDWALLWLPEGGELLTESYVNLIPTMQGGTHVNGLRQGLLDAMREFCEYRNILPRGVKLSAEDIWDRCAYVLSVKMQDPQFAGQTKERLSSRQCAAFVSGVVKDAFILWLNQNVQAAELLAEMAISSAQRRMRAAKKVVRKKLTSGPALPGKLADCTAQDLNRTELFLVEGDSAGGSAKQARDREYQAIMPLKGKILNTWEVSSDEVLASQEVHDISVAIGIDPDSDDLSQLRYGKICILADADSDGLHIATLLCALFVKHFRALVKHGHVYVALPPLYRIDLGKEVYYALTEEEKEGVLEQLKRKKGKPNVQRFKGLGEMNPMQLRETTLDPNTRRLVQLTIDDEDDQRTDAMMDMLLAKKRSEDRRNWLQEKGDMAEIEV
E. coli topoisomerase IV, sequence (P0AFI2 whole entry): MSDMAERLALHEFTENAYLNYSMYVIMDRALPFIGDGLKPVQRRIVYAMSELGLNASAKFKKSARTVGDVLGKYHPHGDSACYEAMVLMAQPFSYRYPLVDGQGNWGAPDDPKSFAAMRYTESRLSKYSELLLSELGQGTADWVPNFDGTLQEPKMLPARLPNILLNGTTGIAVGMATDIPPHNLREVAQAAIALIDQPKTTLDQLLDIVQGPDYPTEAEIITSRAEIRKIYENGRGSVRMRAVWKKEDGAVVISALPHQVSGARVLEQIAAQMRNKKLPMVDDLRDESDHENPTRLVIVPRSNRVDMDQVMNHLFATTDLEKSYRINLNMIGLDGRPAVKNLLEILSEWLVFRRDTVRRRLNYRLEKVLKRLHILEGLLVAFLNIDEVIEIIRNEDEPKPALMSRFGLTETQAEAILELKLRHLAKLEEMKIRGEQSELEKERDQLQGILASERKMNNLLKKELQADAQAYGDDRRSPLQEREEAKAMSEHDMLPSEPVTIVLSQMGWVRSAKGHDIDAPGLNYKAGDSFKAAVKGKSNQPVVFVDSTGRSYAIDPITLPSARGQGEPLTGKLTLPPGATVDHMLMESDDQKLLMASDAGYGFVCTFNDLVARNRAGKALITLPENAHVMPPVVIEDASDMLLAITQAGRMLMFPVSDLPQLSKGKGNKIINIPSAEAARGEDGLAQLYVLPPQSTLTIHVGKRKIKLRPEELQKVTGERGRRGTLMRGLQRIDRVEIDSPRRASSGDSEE

## Cn1c(=O)ccc2ccc(F)c(OCCNC[C@H]3CN(c4cnc5c(n4)NC(=O)CO5)C(=O)O3)c21 [Compound 2, (S)-6-(5-(((2-((7-fluoro-1-methyl-2-oxo-1,2-dihydroquinolin-8-yl)oxy)ethyl)amino)methyl)-2-oxooxazolidin-3-yl)-2H-pyrazino[2,3-b][1,4]oxazin-3(4H)-one]
E. coli topoisomerase IV; gel based decatenation assay, read-out: E. coli Topo IV IC50
  IC50: 45 nM
E. coli topoisomerase IV; unit inferred, read-out: IC50 E. coli Topo IV
  IC50: ≤ 50 nM
[1]; [5]
  MIC50: 0.125 µg/mL (≈ 0.258 µM)
  MIC90: 0.5 µg/mL (≈ 1.03 µM)
[1]; Kpn clinical strains, MIC50/MIC90 in μg/ml
  Minimum (MIC): 0.06 µg/mL
[1]; Kpn reference strain ATCC13883, MIC50/MIC90 in μg/ml
  MIC ATCC13883: 0.06 µg/mL (≈ 0.124 µM)
E. coli [ATCC25922]; 3 mg/kg
  effect when compared to the 4 h PI control (in words): bacteriostatic
  MEAN ± SD (Log10 CFU/g kidneys): 5.13 ± 0.28 Log10 CFU/g kidneys
  MEAN ± SD (Log10 CFU/ml Bladder): 5.89 ± 0.4 Log10 CFU/ml Bladder
  Mean Log10CFU/g kidney reduction (wrt 4 h PI control: 4.53 Log10CFU/g kidneys): −0.60 Log10CFU/g kidney
  Mean Log10 CFU/ml Bladder reduction (wrt 4 h PI control: 5.72 CFU/ml Bladder): −0.17 Log10 CFU/ml Bladder
  Log10 CFU/g (Left Kidney): 5.39 Log10 CFU/g and 5.17 Log10 CFU/g and 5.24 Log10 CFU/g
  Log10 CFU/g (Right Kidney): 4.68 Log10 CFU/g and 4.90 Log10 CFU/g and 5.39 Log10 CFU/g
  Log10 CFU/ml Bladder: 5.43 Log10 CFU/ml Bladder and 6.16 Log10 CFU/ml Bladder and 6.08 Log10 CFU/ml Bladder
E. coli [ATCC25922]; 10 mg/kg
  MEAN ± SD (Log10 CFU/g kidneys): 3.95 ± 0.33 Log10 CFU/g kidneys
  MEAN ± SD (Log10 CFU/ml Bladder): 4.8 ± 0.2 Log10 CFU/ml Bladder
  Mean Log10CFU/g kidney reduction (wrt 4 h PI control: 4.53 Log10CFU/g kidneys): 0.58 Log10CFU/g kidney
  Mean Log10 CFU/ml Bladder reduction (wrt 4 h PI control: 5.72 CFU/ml Bladder): 0.92 Log10 CFU/ml Bladder
  Log10 CFU/g (Left Kidney): 4.12 Log10 CFU/g and 3.78 Log10 CFU/g and 4.46 Log10 CFU/g
  Log10 CFU/g (Right Kidney): 4.11 Log10 CFU/g and 3.65 Log10 CFU/g and 3.61 Log10 CFU/g
  Log10 CFU/ml Bladder: 5.02 Log10 CFU/ml Bladder and 4.61 Log10 CFU/ml Bladder and 4.76 Log10 CFU/ml Bladder
E. coli [ATCC25922]; 30 mg/kg
  MEAN ± SD (Log10 CFU/g kidneys): 2.91 ± 0.31 Log10 CFU/g kidneys
  MEAN ± SD (Log10 CFU/ml Bladder): 3.89 ± 0.3 Log10 CFU/ml Bladder
  Mean Log10CFU/g kidney reduction (wrt 4 h PI control: 4.53 Log10CFU/g kidneys): 1.62 Log10CFU/g kidney
  Mean Log10 CFU/ml Bladder reduction (wrt 4 h PI control: 5.72 CFU/ml Bladder): 1.83 Log10 CFU/ml Bladder
  Log10 CFU/g (Left Kidney): 3.22 Log10 CFU/g and 3.36 Log10 CFU/g and 2.80 Log10 CFU/g
  Log10 CFU/g (Right Kidney): 2.77 Log10 CFU/g and 2.75 Log10 CFU/g and 2.55 Log10 CFU/g
  Log10 CFU/ml Bladder: 4.19 Log10 CFU/ml Bladder and 3.90 Log10 CFU/ml Bladder and 3.58 Log10 CFU/ml Bladder
E. coli [ATCC25922]; 10 and 30 mg/kg
  effect with respect to 4 h PI control (in words): significant dose dependent bactericidal effect
[2]; Aba clinical strains
  MIC50: 0.06 µg/mL (≈ 0.124 µM)
  MIC90: 0.25 µg/mL (≈ 0.516 µM)
[2]; Aba clinical strains, MIC50/MIC90 in μg/ml, in µg/mL
  Minimum (MIC): 0.03
[2]; Aba reference strain ATCC19606, MIC50/MIC90 in μg/ml
  MIC ATCC19606: 0.06 µg/mL (≈ 0.124 µM)
E. coli DNA gyrase; gel based supercoiling assay, read-out: E. coli DNA Gyrase IC50
  IC50: 12 nM
E. coli DNA gyrase; unit inferred, read-out: IC50 E. coli DNA Gyrase
  IC50: ≤ 50 nM
[3]; 3 mg/kg
  MEAN ± SD (Log10 CFU/g Lung): 8.09 ± 0.14 Log10 CFU/g Lung
  Mean Log 10 CFU/g lung reduction (wrt 4 h PI control: 6.52 Log10CFU/g lung): −1.57 Log 10 CFU/g lung
  Log10 CFU/g Lung: 7.99 Log10 CFU/g Lung and 8.02 Log10 CFU/g Lung and 8.26 Log10 CFU/g Lung
[3]; 10 mg/kg
  MEAN ± SD (Log10 CFU/g Lung): 6.93 ± 0.44 Log10 CFU/g Lung
  Mean Log 10 CFU/g lung reduction (wrt 4 h PI control: 6.52 Log10CFU/g lung): −0.41 Log 10 CFU/g lung
  Log10 CFU/g Lung: 7.34 Log10 CFU/g Lung and 6.98 Log10 CFU/g Lung and 6.46 Log10 CFU/g Lung
[3]; 30 mg/kg and 100 mg/kg doses
  efficacy with respect to early infection control (in words): significant efficacy
[3]; 30 mg/kg
  MEAN ± SD (Log10 CFU/g Lung): 5.35 ± 0.25 Log10 CFU/g Lung
  Mean Log 10 CFU/g lung reduction (wrt 4 h PI control: 6.52 Log10CFU/g lung): 1.17 Log 10 CFU/g lung
  Log10 CFU/g Lung: 5.30 Log10 CFU/g Lung and 5.63 Log10 CFU/g Lung and 5.14 Log10 CFU/g Lung
[3]; 100 mg/kg
  MEAN ± SD (Log10 CFU/g Lung): 3.1 ± 0.12 Log10 CFU/g Lung
  Mean Log 10 CFU/g lung reduction (wrt 4 h PI control: 6.52 Log10CFU/g lung): 3.42 Log 10 CFU/g lung
  Log10 CFU/g Lung: 3.12 Log10 CFU/g Lung and 3.20 Log10 CFU/g Lung and 2.98 Log10 CFU/g Lung
[4]; IV infusion and Oral dosing at 5, 10, 30 & 100 mg/kg doses in SD rats
  AUC and Cmax versus dose (in words): Dose proportional increase
[4]; SD rats
  clearance (in words): moderate
  half life (in words): moderate
  oral bioavailability (in words): good
  volume of distribution (in words): low
[4]; 5 mg/kg, IV (1 h infusion)
  Cmax: 2800 ± 970 ng/mL
[4]; 10 mg/kg PO
  Cmax: 2580 ± 75 ng/mL
[4]; 30 mg/kg, IV (1 h infusion)
  Cmax: 25200 ± 610 ng/mL
